According to patent US20110189311A1, “Highly Absorbable Drug Composition and Method of Producing the Same” (TOYO SUGAR REFINING CO., LTD., priority 2009, published 2011):

What was measured:
[1] = at 37° C.; cited from earlier work
[2] = Oral administration of drug compositions to rats, blood (plasma) drug concentration by HPLC and AUC; format: in vivo, wistar rats; conditions: average of five rats
Experimental: As test animals, 9-week-old male clean wistar rats (five rats for each of drug compositions A to F) were used. […] After the administration, blood was collected from the neck vein of each clean wistar rat at predetermined time intervals and was centrifuged (10000 rpm, 5 min) to obtain plasma. Four hundred microliters of methanol was added to 100 μL of the obtained plasma, and the mixture was mixed for 1 minute with a vortex mixer and was centrifuged (10000 rpm, 5 min). […] One hundred microliters of ethanol was added to the resulting dried substance, and the blood drug concentration was measured using a UV detector (JASCO PU-970) of HPLC (JASCO PU-980). […] Based on the thus-measured blood drug concentrations of the drug compositions, concentration changes with passage of time and areas under blood drug concentration-time curves (AUC) were studied. […] Note that the values of AUC and blood drug concentration in Table 1 and FIGS. 1 to 6 are averages in the five clean wistar rats administered with each of the drug compositions A to F, and “SE” means standard error.

[3] = cited from earlier work

AUC (area under flurbiprofen plasma concentration-time curve) ([2]; flurbiprofen (FP), dose 2 mg/kg) [ng·h/mL] | AUC (area under probucol plasma concentration-time curve) ([2]; probucol (PRO), dose 200 mg/kg) [ng·h/mL] | SMILES | solubility in neutral water [1] | bioavailability to human [3]
22060 | – | CC(C(=O)O)c1ccc(-c2ccccc2)c(F)c1 (centres unmarked) [flurbiprofen] | 25 μg/mL water | –
– | 4940 | CC(C)(Sc1cc(C(C)(C)C)c(O)c(C(C)(C)C)c1)Sc1cc(C(C)(C)C)c(O)c(C(C)(C)C)c1 [probucol] | 3 to 5 ng/mL water | about 5%
